Source: ChEMBL document CHEMBL1147723, “Novel chromene-derived selective estrogen receptor modulators useful for alleviating hot flushes and vaginal dryness” (J Med Chem, 2006)
The source made the active and inactive calls. The calls are words filed in the database; no cut-off is given here.

Experiments:
Estrogen receptor beta = Estrogen receptor beta (Homo sapiens, UniProt Q92731)
Description: Binding affinity to ERbeta

Rattus norvegicus [1] = experiment: (§1) Ability to block estrone-induced increase in uterine wet weight in immature rat at […], po after 3 days by uterotropic assay; assay type: functional; conditions: 72 h
Estrogen receptor [2] = target: T1, Estrogen receptor (Homo sapiens, UniProt Q92731+P03372); conditions: mcf7
Description: Inhibition of estrogen receptor in MCF7 cells

Rattus norvegicus [3] = experiment: (§2) Increase in vaginal fluid in ovariectomized rat at […], po; assay type: functional, organism-based; set-up: dose 1.4 mg/kg
Rattus norvegicus [4] = experiment: as §2; assay type: functional, organism-based; set-up: dose 0.14 mg/kg
Rattus norvegicus [5] = species on record: Rattus norvegicus; experiment: Reduction in serum cholesterol level in ovariectomized rat; assay type: functional; set-up: scale not given: the % may be the effect or the level left
Rattus norvegicus [6] = experiment: Ability to block estrone-induced increase in uterine wet weight in immature rat at 0.42 mg/kg/day, po after 3 days by uterotropic assay; assay type: functional; conditions: 72 h
Estrogen receptor [7] = target: T1, Estrogen receptor; conditions: ishikawa
Description: Inhibition of estrogen receptor in Ishikawa cells

Rattus norvegicus [8] = experiment: Ability to suppress increase of tail skin temperature in morphine-dependent rat at […].day, po; assay type: functional, organism-based; set-up: dose 1.4 mg/kg
Rattus norvegicus [9] = experiment: as §1; assay type: functional; conditions: 72 h; remark: listed apart in the source
Estrogen receptor [10] = target: T2, Estrogen receptor (Homo sapiens, UniProt P03372)
T2 sequence (P03372 whole entry): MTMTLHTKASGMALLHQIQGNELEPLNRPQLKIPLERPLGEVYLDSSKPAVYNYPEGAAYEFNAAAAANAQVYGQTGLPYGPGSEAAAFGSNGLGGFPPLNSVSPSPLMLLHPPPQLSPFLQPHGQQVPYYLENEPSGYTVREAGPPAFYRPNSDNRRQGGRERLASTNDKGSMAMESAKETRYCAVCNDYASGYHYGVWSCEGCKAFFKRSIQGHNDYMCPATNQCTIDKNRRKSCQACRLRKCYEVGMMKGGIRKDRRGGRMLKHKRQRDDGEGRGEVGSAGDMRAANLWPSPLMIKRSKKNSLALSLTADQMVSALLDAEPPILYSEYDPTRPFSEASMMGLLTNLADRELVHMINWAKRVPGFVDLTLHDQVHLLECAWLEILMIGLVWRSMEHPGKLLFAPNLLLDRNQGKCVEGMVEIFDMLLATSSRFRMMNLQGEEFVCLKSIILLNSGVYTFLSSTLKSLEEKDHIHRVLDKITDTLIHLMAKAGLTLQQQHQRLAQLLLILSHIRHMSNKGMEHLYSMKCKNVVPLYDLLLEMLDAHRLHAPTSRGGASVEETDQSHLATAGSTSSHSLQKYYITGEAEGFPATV
Description: Binding affinity to ERalpha

[11] = Bioavailability in rat plasma; assay type: ADME, organism-based
Rattus norvegicus [12] = species on record: Rattus norvegicus; experiment: Inhibition of bone loss in ovariectomized rat; assay type: functional, organism-based
Estrogen receptor [13] = target: T1, Estrogen receptor; experiment: Agonist activity at estrogen receptor in MCF7 cells; assay type: functional, cell-based
Rattus norvegicus [14] = species on record: Rattus norvegicus; experiment: Ability to suppress increase of tail skin temperature in morphine-dependent rat; assay type: functional, organism-based

Sequence of Estrogen receptor beta (Q92731 whole entry): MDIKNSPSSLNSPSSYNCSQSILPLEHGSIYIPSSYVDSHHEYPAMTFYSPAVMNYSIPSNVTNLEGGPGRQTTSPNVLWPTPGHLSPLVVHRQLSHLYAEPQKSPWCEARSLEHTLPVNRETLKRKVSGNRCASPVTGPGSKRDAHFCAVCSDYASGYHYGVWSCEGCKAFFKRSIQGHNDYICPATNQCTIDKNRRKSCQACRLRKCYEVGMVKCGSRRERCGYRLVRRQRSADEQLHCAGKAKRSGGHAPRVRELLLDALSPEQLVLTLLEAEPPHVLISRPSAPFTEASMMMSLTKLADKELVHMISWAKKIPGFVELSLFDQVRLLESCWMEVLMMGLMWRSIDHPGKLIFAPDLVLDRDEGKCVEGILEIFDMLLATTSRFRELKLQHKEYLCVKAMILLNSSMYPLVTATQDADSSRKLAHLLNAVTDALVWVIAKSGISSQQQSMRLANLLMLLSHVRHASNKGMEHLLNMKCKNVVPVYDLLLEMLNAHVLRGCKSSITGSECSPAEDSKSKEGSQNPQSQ

Row | SMILES | IC50 (Estrogen receptor [7]) [nM] | bioavailability [11] [%] | EC50 (Estrogen receptor [13]) [nM] | IC50 (Estrogen receptor beta) [nM] | inhibition in vivo at […] (Rattus norvegicus [1]) [%] | IC50 (Estrogen receptor [2]) [nM] | Activity (Rattus norvegicus [3]) | Activity (Rattus norvegicus [4]) | Activity (Rattus norvegicus [5]) [%] | inhibition in vivo at 0.42 mg/kg/day (Rattus norvegicus [6]) [%] | Activity (Rattus norvegicus [8]) | inhibition in vivo at […] (Rattus norvegicus [9]) [%] | IC50 (Estrogen receptor [10]) [nM] | Activity (Rattus norvegicus [12]) | Activity (Rattus norvegicus [14])
1 | Oc1ccc2c(c1)O[C@@H](c1ccc(OCCN3CCCCC3)cc1)C1=C2COc2cc(O)ccc21 | 17.1 |  |  | 1.3 |  | 416 |  |  |  |  |  |  | 0.61 |  | 
2 | Oc1ccc2c(c1)O[C@H](c1ccc(OCCN3CCCCC3)cc1)C1=C2COc2cc(O)ccc21 | 43.3 |  |  | 20.3 |  | 599 |  |  |  |  |  |  | 51 |  | 
3 | Oc1ccc2c(c1)OC(c1ccc(OCCN3CCCCC3)cc1)C1=C2COc2cc(O)ccc21 (stereo not drawn) | 12 |  |  |  |  | 110 |  |  |  |  |  |  |  |  | 

More lines, main results first:

Row | IC50 (Estrogen receptor [7]) [nM] | bioavailability [11] [%] | EC50 (Estrogen receptor [13]) [nM] | SMILES | IC50 (Estrogen receptor beta) [nM] | inhibition in vivo at […] (Rattus norvegicus [1]) [%] | IC50 (Estrogen receptor [2]) [nM] | Activity (Rattus norvegicus [3]) | Activity (Rattus norvegicus [4]) | Activity (Rattus norvegicus [5]) [%] | inhibition in vivo at 0.42 mg/kg/day (Rattus norvegicus [6]) [%] | Activity (Rattus norvegicus [8]) | inhibition in vivo at […] (Rattus norvegicus [9]) [%] | IC50 (Estrogen receptor [10]) [nM] | Activity (Rattus norvegicus [12]) | Activity (Rattus norvegicus [14])
4 | 175 | 11 |  | CC(C)(C)C(=O)Oc1ccc2c(c1)O[C@H](c1ccc(OCCN3CCCCC3)cc1)C1=C2COc2cc(OC(=O)C(C)(C)C)ccc21 | > 10000 | 75 | 510 | Active | Active | 33 | 55 | Active | 27 | > 10000 | Dose-dependent effect | 
5 | 180 |  |  | CN(C)CCOc1ccc(C2Oc3cc(O)ccc3C3=C2c2ccc(O)cc2OC3)cc1 (stereo not drawn) |  |  | 220 |  |  |  |  |  |  |  |  | 
6 | 3800 |  | 71 | CN(C)c1ccc(C2Oc3cc(O)ccc3C3=C2c2ccc(O)cc2OC3)cc1 (stereo not drawn) |  |  |  |  |  |  |  |  |  |  |  | 
7 | 99 | 9 |  | CC(C)(C)C(=O)Oc1ccc2c(c1)O[C@@H](c1ccc(OCCN3CCCCC3)cc1)C1=C2COc2cc(OC(=O)C(C)(C)C)ccc21 | > 10000 | 100 | 670 |  |  | 33 | 88 |  | 55 | > 1000 | Dose-dependent effect | inactive
